{
  "source": "patent US10561712B2",
  "about": "“Treatment of cancer and inhibition of metastasis using hemoglobin beta subunit” (UNIVERSITY OF MARYLAND, BALTIMORE, priority 2014, dated 2020)",
  "key": {"[1]": {"system": "MCF-7 breast carcinoma cells", "assay": "Viability of cancerous cell lines, MCF-7", "conditions": "MTS-based assay; FIG. 3E", "procedure": "(§1) Neuroblastoma cells were seeded (3×10^4 per well) in a 96-well flat-bottomed tissue culture plate. After an incubation of 24 hr, cells were washed and incubated with the relevant factors (detailed in the following sections) diluted in starvation medium (RPMI-1640 containing 5% bovine serum albumin (BSA); Biological Industries, Kibbutz Beit Haemek, Israel; Sigma-Aldrich). Cell viability under normal conditions (starvation medium containing BSA) or after incubation with the relevant factors was monitored after 72 hr using an XTT (XTT cell proliferation kit; Biological Industries) or MTS-based (CellTiter 96® AQueous One Solution Cell Proliferation Assay; Promega) viability assays according to manufacturer instructions. Cells were also counted using the trypan-blue exclusion assay to verify the results obtained by XTT and MTS-based viability assays.\nWhen incubated with the highest amount of HBB (100 μg), the viability of the following cell lines was inhibited: the breast cancer cell lines T47D and MCF-7, the prostate cancer cell line 22RVi, the cervical cancer cell line Hela, and the melanoma cell lines RALL and RKTJ."}, "[2]": {"system": "Cyclin D1 expression in MacroNB cells", "assay": "Cyclin D1 expression (western blot), MacroNB cells", "assay_type": "cell-based", "conditions": "incubated with human HBB, 48 hr; in reference to beta-tubulin; FIG. 4C", "procedure": "(§2) Lysates of neuroblastoma cells and of mouse organs were resolved on SDS-PAGE after the addition of Laemmli sample buffer, and transferred onto nitrocellulose membrane. The total amount of protein in the lanes was assessed by Ponceau staining prior to blocking of the membrane. The membrane was blocked at room temperature with 3% BSA (Sigma-Aldrich) diluted in TBS-Tween (TBST) for 1 hr. For detection of the target proteins, membranes were incubated with relevant primary antibodies (see “Antibodies”), then washed 3 times×5 min with TBSTX1 and incubated with suitable HRP-conjugated secondary antibodies (see “Antibodies”). Membranes were washed again 5 times×3 min with TBSTX1. […]\n(§3) Neuroblastoma cells (5×10^6) were plated and after 24 hr cells were incubated for 48 hr with human HBB diluted in starvation medium (RPMI 5% BSA) to a concentration of 10 μg/ml. […] Cyclin D1 expression was calculated in reference to β-tubulin expression in the lane as measured by densitometry using Scion Image software (Scion).\n(§4) Whole cell lysates of MicroNB and MacroNB cells incubated with human HBB were subjected to western blot analysis and immunostaining. […] Cyclin D1 expression was calculated in reference to beta-tubulin. […] Significance was evaluated using Student's t-test for each analysis after incubation with HBB compared to incubation with control media."}, "MacroNB cells": {"system": "MacroNB cells", "assay": "Trypan blue exclusion assay, MacroNB cells", "assay_type": "cell-based, human", "conditions": "incubation with HBB, results not shown", "procedure": "as §1\nThe HBB-mediated inhibitory activity was dose dependent (results not shown)."}, "MicroNB cells": {"system": "MicroNB cells", "assay": "Cell cycle analysis by flow cytometry, MicroNB cells", "assay_type": "cell-based, human", "conditions": "HBB (1 μg) for 48 hr", "procedure": "Neuroblastoma cells (5×10^5) were plated and after 24 hr, cells were incubated for 48 hr with HBB diluted in starvation medium (RPMI 5% BSA) to a concentration of 10 μg/ml. Neuroblastoma cells incubated with starvation medium containing BSA alone served as control. Cells were pelleted, washed and resuspended in 0.5 ml PBSX1, containing 0.05 ml propidium iodide (PI) (P-4170, Sigma) (50 μg/ml), and 0.05 ml Triton X-100 (Sigma-Aldrich). Flow cytometry analysis was performed using Becton Dickinson FACSort and CellQuest software (Becton Dickinson, Mountain View, Calif.).\nThe cells were also subjected to measurement of cellular DNA content and cell cycle analysis using flow cytometry. Incubation with human HBB elevated the amount of MicroNB and MacroNB cells in the sub GO phase, by 18% and 11%, respectively (data not shown)."}, "[3]": {"system": "ERK1/2 phosphorylation in MicroNB cells", "assay": "ERK1/2 phosphorylation (western blot), MicroNB cells", "assay_type": "cell-based, human", "conditions": "HBB (1 μg) for 48 hr; in reference to total ERK2; FIG. 4A", "procedure": "Lysates of neuroblastoma cells and of mouse organs were resolved on SDS-PAGE after the addition of Laemmli sample buffer, and transferred onto nitrocellulose membrane. The total amount of protein in the lanes was assessed by Ponceau staining prior to blocking of the membrane. The membrane was blocked at room temperature with 3% BSA (Sigma-Aldrich) diluted in TBS-Tween (TBST) for 1 hr. For detection of the target proteins, membranes were incubated with relevant primary antibodies (see “Antibodies”), then washed 3 times×5 min with TBSTX1 and incubated with suitable HRP-conjugated secondary antibodies (see “Antibodies”). Membranes were washed again 5 times×3 min with TBSTX1. The bands were visualized by chemiluminescence-ECL reactions and autoradiography by exposure to Fuji film. The amount of the relevant protein in the lanes was estimated by densitometry using Scion Image software (Scion, Frederick, Md., USA).\nNeuroblastoma cells (5×10^6) were plated and after 24 hr the growth medium was replaced with starvation medium (RPMI 0.5% FCS) for 24 hr. […] ERK1/2 phosphorylation was calculated in reference to total ERK2 protein, p38 and TAK1 phosphorylation was calculated in reference to total p38 and TAK1, respectively, as measured by densitometry using Scion Image software (Scion). […]"}, "[4]": {"system": "Cyclin D1 expression in MicroNB cells", "assay": "Cyclin D1 expression (western blot), MicroNB cells", "assay_type": "cell-based", "conditions": "incubated with human HBB, 48 hr; in reference to beta-tubulin; FIG. 4C", "procedure": "as §2, §3, §4"}, "[5]": {"system": "normal kidney cell line 293T", "assay": "Viability of normal cells, 293T", "assay_type": "cell-based", "conditions": "data not shown", "from_the_text": "The influence of HBB on the viability of the normal lung-residing cell lines HPEC (Human pulmonary endothelial cells) and HLMEC (Human lung microvascular endothelial cells) and on the normal kidney cell line 293T and 293A was examined as well."}},
  "data": [
    {"substance": "HBB: beta subunit of human hemoglobin, 147 amino acids, SEQ ID NO:2, HPLC-purified from native human hemoglobin", "values": [
      {"measurement": "influence on viability of MCF-7 breast carcinoma cells (in words)", "setting": "[1]", "result": "inhibits the viability"},
      {"measurement": "Cyclin-D1 expression in MacroNB cells", "setting": "[2]", "result": "significant decline"},
      {"measurement": "non-viable MacroNB cells following incubation", "setting": "MacroNB cells", "result": 8, "unit": "%"},
      {"measurement": "elevation of the amount of MicroNB cells in G0-G1 phase", "setting": "MicroNB cells; FIG. 4B", "result": 59, "unit": "%"},
      {"measurement": "elevation of the amount of MicroNB cells in the sub G0 phase", "setting": "MicroNB cells; data not shown", "result": 18, "unit": "%"},
      {"measurement": "ERK phosphorylation in MicroNB cells", "setting": "[3]", "result": "decreased"},
      {"measurement": "Cyclin-D1 expression in MicroNB cells", "setting": "[4]", "result": "significant decline"},
      {"measurement": "influence on the viability of normal cells", "setting": "[5]", "result": "did not influence the viability"}
    ]}
  ]
}
